According to patent US20120225471A1, “Method for producing a composite material” (priority 2011, published 2012):

Test system: zygomycetes, ascomycetes and bacteria/yeast
Assay: Cotton burr substrate disinfection, all contaminant types
Type: cell-based
Conditions: 2.5 mL Tween 80 added to each PEO concentration; Fisher's Exact Test p=0.318, 0.499, 0.448 (zygomycetes, ascomycetes, bacteria/yeast)
Description: Eight plant essential oils (cinnamon, clove, lemongrass, oregano, savory, spearmint, tea tree and thyme) were prepared with tap water in 600 ml Pyrex glass beakers in the following volumetric concentrations: 0.1, 0.5, 1.0, 1.5, 2.0% [v:v]. Twenty-four grams of a propriety cotton burr substrate was placed in a 25×25 cm square of tule mesh tied with a rubber band to make one bundle. Each concentration was tested in replicates of 5, by submersing each bundle in a beaker containing one of the plant essential (PEO) concentrations for three hours. Each beaker was placed under constant magnetic stirring at 300 rpm, to maintain the oil emulsion during the exposure period.
The bundle was then opened within a laminar flow hood and three pieces of cotton burrs were transferred to five Petri plates each of Potato Dextrose Agar (PDA) and Tryptic Soy Agar (TSA).
The submersion process was repeated for each PEO at the five concentrations over a period of three weeks. The number of ascomycete, zygomycete and bacteria/yeast colonies were recorded for each plate every 3 days for 15 days. […]
Example 2 followed the same procedure as Example 1, but examined the efficacy of the five selected oil concentrations at the following exposure intervals: 30, 60, and 120 minutes. This analysis determined the minimum exposure time required for microbial inhibition on cotton burr substrate. […]

Question: CCCCCCCC/C=C\CCCCCCCC(=O)OCCOCC(OCCO)C1OCC(OCCO)C1OCCO (stereo not shown) [Tween 80] was tested. Which “frequency of contamination on substrate treated with the surfactant versus non-treated substrate” value did it give?
Answer: Its value is “no significant difference”.
